Test results: ChEMBL document CHEMBL1201862, “PubChem BioAssay data set” (2004)
Activity calls are given as the source filed them.

How the values were obtained:
Type in all cases: functional
[1] = target: Lymphokine-activated killer T-cell-originated protein kinase (Homo sapiens, UniProt Q96KB5);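 further: value comes from a kinase panel screen in which TOPK was one of the panel members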
[2] = target: T1, Tyrosine-protein kinase receptor TYRO3 (Homo sapiens, UniProt Q06418);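 further: TYRO3 value obtained as one member of a kinome-wide profiling panel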
T1 sequence (Q06418 whole entry): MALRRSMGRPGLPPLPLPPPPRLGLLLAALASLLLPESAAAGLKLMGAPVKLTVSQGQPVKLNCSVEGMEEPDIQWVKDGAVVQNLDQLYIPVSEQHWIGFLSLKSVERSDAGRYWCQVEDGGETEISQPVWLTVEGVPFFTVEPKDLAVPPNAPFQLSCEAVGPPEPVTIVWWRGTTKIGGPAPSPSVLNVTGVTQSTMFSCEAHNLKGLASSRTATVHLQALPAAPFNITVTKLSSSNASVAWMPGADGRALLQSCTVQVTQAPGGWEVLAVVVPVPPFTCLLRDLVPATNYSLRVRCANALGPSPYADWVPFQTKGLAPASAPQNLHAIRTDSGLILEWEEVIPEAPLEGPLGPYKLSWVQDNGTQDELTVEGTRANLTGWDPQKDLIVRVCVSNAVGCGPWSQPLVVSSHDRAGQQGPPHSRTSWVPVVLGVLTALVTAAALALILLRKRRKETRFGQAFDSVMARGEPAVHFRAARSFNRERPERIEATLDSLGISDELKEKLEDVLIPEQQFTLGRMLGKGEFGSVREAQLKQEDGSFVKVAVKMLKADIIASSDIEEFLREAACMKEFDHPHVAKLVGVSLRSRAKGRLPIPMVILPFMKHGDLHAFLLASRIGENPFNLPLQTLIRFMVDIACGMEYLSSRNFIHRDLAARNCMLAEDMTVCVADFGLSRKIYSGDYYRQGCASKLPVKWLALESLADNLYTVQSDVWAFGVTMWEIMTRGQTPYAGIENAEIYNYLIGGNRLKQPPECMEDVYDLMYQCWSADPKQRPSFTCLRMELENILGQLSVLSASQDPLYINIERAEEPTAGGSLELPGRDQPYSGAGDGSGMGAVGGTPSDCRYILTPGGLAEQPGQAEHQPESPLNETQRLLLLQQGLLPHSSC

[3] = target: Fibroblast growth factor receptor 1 (Homo sapiens, UniProt P11362)
[4] = target: T2, Serine/threonine-protein kinase TAO1 (Homo sapiens, UniProt Q7L7X3)
T2 sequence (Q7L7X3 whole entry): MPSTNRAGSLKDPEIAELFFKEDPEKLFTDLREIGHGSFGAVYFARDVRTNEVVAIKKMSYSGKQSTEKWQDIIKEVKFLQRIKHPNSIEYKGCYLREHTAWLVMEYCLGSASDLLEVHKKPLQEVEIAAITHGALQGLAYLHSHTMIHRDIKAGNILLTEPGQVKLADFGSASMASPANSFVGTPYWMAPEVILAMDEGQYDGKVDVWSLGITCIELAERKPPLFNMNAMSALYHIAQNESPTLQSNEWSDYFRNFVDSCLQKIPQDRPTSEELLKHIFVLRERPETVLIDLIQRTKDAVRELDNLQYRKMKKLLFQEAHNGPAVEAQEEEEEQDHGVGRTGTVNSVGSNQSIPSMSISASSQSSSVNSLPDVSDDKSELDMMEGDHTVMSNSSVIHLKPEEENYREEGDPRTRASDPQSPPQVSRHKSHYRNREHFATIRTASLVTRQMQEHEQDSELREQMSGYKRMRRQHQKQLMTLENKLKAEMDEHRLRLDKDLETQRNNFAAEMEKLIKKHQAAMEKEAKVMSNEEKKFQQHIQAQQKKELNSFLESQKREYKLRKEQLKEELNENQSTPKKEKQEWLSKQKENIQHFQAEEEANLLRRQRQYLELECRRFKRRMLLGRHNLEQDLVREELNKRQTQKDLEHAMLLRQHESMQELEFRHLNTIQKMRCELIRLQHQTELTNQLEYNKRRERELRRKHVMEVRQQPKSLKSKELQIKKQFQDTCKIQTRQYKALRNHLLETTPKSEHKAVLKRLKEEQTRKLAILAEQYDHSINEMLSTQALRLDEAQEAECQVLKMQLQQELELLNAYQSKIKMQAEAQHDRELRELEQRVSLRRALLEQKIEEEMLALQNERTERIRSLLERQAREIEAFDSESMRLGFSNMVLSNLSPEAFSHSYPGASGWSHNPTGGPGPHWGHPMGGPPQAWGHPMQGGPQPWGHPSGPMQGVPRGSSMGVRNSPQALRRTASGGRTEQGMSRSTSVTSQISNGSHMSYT

[5] = target: T3, Mitogen-activated protein kinase kinase kinase kinase 2 (Homo sapiens, UniProt Q12851);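 further: measured as one member of a kinome-wide kinase panel, with MAP4K2 as the panel entry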
T3 sequence (Q12851 whole entry): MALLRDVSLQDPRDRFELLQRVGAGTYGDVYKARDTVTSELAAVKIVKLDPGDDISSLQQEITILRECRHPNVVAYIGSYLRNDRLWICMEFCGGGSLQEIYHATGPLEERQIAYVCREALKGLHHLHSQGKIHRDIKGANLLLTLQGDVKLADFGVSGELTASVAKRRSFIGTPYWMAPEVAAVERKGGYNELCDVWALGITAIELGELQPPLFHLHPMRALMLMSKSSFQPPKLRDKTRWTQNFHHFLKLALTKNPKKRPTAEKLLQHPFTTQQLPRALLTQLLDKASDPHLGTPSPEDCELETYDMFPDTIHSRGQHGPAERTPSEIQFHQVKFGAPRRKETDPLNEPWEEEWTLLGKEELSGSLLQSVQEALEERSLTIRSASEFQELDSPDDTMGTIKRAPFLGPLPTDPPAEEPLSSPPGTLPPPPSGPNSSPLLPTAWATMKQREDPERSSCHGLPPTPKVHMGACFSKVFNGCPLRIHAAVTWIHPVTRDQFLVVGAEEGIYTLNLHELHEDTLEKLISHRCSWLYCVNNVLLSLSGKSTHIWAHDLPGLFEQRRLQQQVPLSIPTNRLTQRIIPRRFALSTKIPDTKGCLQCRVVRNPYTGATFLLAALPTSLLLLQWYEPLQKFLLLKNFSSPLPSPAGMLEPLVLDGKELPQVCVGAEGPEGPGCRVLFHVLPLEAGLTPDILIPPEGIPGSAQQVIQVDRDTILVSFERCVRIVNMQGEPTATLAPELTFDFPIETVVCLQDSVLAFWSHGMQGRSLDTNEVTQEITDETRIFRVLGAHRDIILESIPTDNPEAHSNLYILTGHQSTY

[6] = target: Cyclin-dependent kinase 8 (Homo sapiens, UniProt P49336); assay: Navigating the Kinome. Panel member name: CDK8
Activin receptor type-1 = Activin receptor type-1 (Homo sapiens, UniProt Q04771); assay: Navigating the Kinome. Panel member name: ACVR1
[7] = target: Platelet-derived growth factor receptor alpha (Homo sapiens, UniProt P16234); assay: Navigating the Kinome. Panel member name: PDGFRA
Chain of Platelet-derived growth factor receptor alpha (P16234 whole entry): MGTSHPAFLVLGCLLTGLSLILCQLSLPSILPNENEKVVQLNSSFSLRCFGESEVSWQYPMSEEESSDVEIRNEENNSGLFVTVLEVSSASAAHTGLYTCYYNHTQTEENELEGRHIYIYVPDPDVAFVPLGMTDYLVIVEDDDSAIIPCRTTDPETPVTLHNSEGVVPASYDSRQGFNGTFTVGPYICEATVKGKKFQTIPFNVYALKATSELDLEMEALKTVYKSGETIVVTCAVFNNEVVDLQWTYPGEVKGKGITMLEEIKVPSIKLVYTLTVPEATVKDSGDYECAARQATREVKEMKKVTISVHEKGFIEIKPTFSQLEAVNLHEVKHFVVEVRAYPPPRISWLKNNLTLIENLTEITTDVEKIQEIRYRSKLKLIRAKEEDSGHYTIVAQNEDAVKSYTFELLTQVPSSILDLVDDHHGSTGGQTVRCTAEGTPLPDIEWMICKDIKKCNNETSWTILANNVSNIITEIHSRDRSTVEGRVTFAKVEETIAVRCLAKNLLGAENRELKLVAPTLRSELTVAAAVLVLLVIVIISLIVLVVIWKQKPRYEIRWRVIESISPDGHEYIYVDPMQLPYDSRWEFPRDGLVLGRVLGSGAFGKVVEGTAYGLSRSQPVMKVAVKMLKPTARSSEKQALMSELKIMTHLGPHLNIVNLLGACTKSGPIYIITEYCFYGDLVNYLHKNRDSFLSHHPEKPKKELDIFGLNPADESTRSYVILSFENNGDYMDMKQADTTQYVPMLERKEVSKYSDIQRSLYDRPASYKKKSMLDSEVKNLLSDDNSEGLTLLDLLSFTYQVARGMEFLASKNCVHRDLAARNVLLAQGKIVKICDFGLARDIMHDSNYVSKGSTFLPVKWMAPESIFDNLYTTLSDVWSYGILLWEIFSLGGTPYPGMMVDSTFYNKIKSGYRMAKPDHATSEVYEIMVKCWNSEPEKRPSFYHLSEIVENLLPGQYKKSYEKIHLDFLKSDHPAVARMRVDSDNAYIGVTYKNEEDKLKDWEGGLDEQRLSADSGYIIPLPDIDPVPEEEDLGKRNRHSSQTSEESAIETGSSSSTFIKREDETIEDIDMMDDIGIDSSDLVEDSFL

Chain of Fibroblast growth factor receptor 1 (P11362 whole entry): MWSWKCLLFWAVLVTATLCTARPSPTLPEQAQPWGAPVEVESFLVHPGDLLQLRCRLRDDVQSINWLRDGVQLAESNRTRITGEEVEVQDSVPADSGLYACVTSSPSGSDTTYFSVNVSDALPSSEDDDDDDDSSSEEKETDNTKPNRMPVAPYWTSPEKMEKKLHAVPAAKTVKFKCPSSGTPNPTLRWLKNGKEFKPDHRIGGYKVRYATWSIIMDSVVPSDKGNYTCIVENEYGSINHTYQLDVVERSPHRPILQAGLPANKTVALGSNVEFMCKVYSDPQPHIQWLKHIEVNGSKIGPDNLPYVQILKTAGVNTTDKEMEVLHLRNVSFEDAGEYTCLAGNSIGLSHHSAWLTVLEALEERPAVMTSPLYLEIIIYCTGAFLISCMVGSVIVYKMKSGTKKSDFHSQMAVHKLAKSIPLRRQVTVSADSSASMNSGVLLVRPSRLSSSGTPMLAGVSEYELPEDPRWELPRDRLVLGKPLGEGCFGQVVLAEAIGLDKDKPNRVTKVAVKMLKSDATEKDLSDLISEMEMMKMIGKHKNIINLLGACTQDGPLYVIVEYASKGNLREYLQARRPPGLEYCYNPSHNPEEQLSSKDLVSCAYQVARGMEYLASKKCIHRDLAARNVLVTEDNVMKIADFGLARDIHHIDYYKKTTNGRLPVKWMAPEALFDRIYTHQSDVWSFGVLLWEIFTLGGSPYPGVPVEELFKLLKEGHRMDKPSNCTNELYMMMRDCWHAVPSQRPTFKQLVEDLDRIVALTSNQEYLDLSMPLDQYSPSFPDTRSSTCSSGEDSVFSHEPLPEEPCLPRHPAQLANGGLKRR
Chain of Cyclin-dependent kinase 8 (P49336 whole entry): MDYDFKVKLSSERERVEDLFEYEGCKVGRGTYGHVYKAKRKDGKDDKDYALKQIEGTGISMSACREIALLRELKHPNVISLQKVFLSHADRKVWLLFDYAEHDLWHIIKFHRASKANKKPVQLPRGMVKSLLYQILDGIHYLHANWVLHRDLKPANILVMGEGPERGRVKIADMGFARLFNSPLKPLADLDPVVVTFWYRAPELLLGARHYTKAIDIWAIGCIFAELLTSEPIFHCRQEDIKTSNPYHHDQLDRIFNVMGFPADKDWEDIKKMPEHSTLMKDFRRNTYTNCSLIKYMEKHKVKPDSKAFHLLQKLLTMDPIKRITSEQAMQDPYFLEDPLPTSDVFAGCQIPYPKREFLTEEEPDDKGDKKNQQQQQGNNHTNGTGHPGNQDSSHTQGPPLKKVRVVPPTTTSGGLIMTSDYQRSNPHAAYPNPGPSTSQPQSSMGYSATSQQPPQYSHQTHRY
Chain of Activin receptor type-1 (Q04771 whole entry): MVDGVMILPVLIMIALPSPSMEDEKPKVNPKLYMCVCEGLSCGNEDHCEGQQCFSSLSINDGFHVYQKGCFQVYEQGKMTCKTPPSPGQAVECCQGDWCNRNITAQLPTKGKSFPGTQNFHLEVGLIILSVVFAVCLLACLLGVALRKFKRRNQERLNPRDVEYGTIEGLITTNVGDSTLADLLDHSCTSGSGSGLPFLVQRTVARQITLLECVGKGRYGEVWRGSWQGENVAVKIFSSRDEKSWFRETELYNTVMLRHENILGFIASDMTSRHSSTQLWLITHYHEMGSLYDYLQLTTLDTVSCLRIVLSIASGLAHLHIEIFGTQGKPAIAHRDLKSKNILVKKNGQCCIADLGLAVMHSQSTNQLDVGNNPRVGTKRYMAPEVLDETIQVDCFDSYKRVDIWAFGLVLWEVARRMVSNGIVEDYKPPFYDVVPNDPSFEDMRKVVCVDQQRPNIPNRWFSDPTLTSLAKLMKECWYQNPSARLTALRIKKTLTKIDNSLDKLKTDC
Chain of Lymphokine-activated killer T-cell-originated protein kinase (Q96KB5 whole entry): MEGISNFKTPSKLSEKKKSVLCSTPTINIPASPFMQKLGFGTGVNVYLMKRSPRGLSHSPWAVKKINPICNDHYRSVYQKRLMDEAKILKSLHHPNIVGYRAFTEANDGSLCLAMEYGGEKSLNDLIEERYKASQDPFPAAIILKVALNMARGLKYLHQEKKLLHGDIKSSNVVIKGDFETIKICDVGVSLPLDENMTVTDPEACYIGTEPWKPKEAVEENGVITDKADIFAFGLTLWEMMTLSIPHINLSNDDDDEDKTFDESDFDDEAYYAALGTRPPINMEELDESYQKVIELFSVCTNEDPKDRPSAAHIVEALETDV

Row | Ki [2] | Ki [3] | Ki [4] | Ki [5] | Ki [6] | Ki (Activin receptor type-1) | Ki [7] | SMILES | Ki [1]
1 | > 2 µM (inactive) | 3.98 µM (active) | 0.316 µM (active) | 0.0501 µM (active) |  |  |  | NC1CCC(Nc2nccc(-c3c[nH]c4ncccc34)n2)CC1 (stereo not drawn) | 0.631 µM (active)
2 | 63.1 µM (active) | 20 µM (active) | 79.4 µM (active) | 39.8 µM (active) | 6.31 µM (active) | 20 µM (active) | 39.8 µM (active) | OCc1cc(-c2ccc3[nH]ncc3c2)on1 | 
3 | 25.1 µM (active) | 39.8 µM (active) | 79.4 µM (active) | 50.1 µM (active) | 15.8 µM (active) | 79.4 µM (active) | 63.1 µM (active) | CC(C)(O)c1cn(-c2ccc3[nH]ncc3c2)nn1 | 

Row | SMILES | Ki [2] | Ki [3] | Ki [4] | Ki [5] | Ki [6] | Ki (Activin receptor type-1) | Ki [7] | Ki [1]
4 | COC(C(=O)N1Cc2[nH]nc(NC(=O)c3ccc(N4CCN(C)CC4)cc3)c2C1)c1ccccc1 (stereo not drawn) | > 2.51 µM (inactive) |  |  |  | > 3.98 µM (inactive) |  | > 2 µM (inactive) | > 10 µM (inactive)
